From patent publication EP0483631A1, “3-Oxy substituted isoxazolines, process for their preparation and their utilization against Endoparasites” (BAYER AG, priority 1990, dated 1992)

How the values were obtained:
Haemonchus contortus = assay: In vivo nematode test, Haemonchus contortus / sheep (faecal count before and after treatment); design: species or system Schaf; conditions: experimentally infected sheep, treated after the prepatent period, pure active ingredient in gelatine capsules, oral, dose giving complete cessation of egg excretion, read-out: Dosis effectiva
Description: Haemonchus contortus / Schaf
Experimentell mit Haemonchus contortus infizierte Schafe wurden nach Ablauf der Präpatenzzeit des Parasiten behandelt. Die Wirkstoffe wurden als reiner Wirkstoff in Gelatinekapseln oral appliziert.
Der Wirkungsgrad wird dadurch bestimmt, daß man die mit dem Kot ausgeschiedenen […] vor und nach der Behandlung quantitativ auszählt.
(§1) Ein völliges Sistieren der Eiausscheidung nach der Behandlung bedeutet, daß die Würmer abgetrieben wurden oder so geschädigt sind, daß sie keine Eier mehr produzieren (Dosis effectiva).
Geprüfte Wirkstoffe und wirksame Dosierungen (Dosis effectiva) sind aus der nachfolgenden Tabelle ersichtlich: […]

[1] = tested on: Trichostrongylus colubriformis; assay: In vivo nematode test, Trichostrongylus colubriformis / sheep (faecal egg count before and after treatment); design: species or system Schaf; conditions: experimentally infected sheep, treated after the prepatent period, pure active ingredient in gelatine capsules, oral, dose giving complete cessation of egg excretion, read-out: Dosis effectiva
Description: Trichostrongylus colubriformis / Schaf
Experimentell mit Trichostrongylus colubriformis infizierte Schafe wurden nach Ablauf der Präpatenzzeit des Parasiten behandelt. Die Wirkstoffe wurden als reiner Wirkstoff in Gelatinekapseln oral appliziert.
Der Wirkungsgrad wird dadurch bestimmt, daß man die mit dem Kot ausgeschiedenen Wurmeier vor und nach der Behandlung quantitativ auszählt.
as §1
Geprüfte Wirkstoffe und wirksame Dosierungen (Dosis effectiva) sind aus der nachfolgenden Tabelle ersichtlich.

Row | SMILES | minimal effective dose (Haemonchus contortus) [mg/kg] | minimal effective dose [1] [mg/kg]
1 | COC1=NOC[C@H]1NC(=O)c1ccccc1C(=O)O [Beispiel 1, (R)-N-(4,5-Dihydro-3-methoxy-4-isoazolyl)-phthalamidsäure] | 10 | 25
2 | O=C(O)c1ccccc1C(=O)N[C@@H]1CON=C1OCc1cccc(Cl)c1 [Beispiel 2, (R)-N-[4-5-Dihydro-3-(-3-chlorphenyl)-methoxy-4-isoxazolyl]-phthalamidsäure] | 10 | 25
3 | CC(C)OC1=NOCC1NC(=O)c1ccccc1C(=O)O (stereo not drawn) [Beispiel 3] | 10 | 25
